# Legend:
# E. faecalis = tested on: E. faecalis; parameters: method as in ref 7 (Arends et al., 2019); details: ref 7 (Arends et al., 2019); cited from earlier work
# E. coli ATCC 25922 [1] = experiment: MIC broth microdilution; format: cell-based; details: Escherichia coli, ATCC25922
# K. pneumoniae KPNIH1 = experiment: microbe, parasite or virus in culture; format: cell-based; details: Klebsiella pneumoniae
# [2] = tested on: E. coli MG1655 GyrA R121K, ParC WT; experiment: microbe, parasite or virus in culture; format: cell-based; details: Escherichia coli
# P. aeruginosa ATCC 27853 = experiment: MIC broth microdilution; format: cell-based; details: Pseudomonas aeruginosa, ATCC27853
# K. pneumoniae BAA 2784 = experiment: microbe, parasite or virus in culture; format: cell-based; details: Klebsiella pneumoniae, BAA2784
# S. aureus ATCC 29213 = experiment: MIC broth microdilution; format: cell-based; details: Staphylococcus aureus, ATCC29213
# Human topo IIß = Human topo IIß (Homo sapiens, UniProt Q02880); experiment: Human topo IIß decatenation assay; format: biochemical
# Description: (§1) Human topo IIα (0.9 nM) and topo IIß (2.2 nM) decatenation assays were performed following the same protocol used for bacterial topoisomerase IV decatenation assays. The assay buffer was made of 50 mM Tris. HCl (pH 7.5), 125 mM NaCl, 10 mM MgCl2, 5 mM DTT, and 100 μg/mL albumin.
# S. aureus = details: ref 8 (Flamm et al., 2017); cited from earlier work
# E. cloacae = details: ref 7 (Arends et al., 2019); cited from earlier work
# [3] = tested on: E. coli MG1655 GyrA WT, ParC R119K; experiment: microbe, parasite or virus in culture; format: cell-based; details: Escherichia coli
# K. pneumoniae BAA 2782 = experiment: microbe, parasite or virus in culture; format: cell-based; details: Klebsiella pneumoniae, BAA2782
# E. coli BAA 2469 = experiment: microbe, parasite or virus in culture; format: cell-based; details: Escherichia coli, BAA2469
# P. aeruginosa BAA 2797 = experiment: microbe, parasite or virus in culture; format: cell-based; details: Pseudomonas aeruginosa, BAA2797
# K. pneumoniae = details: ref 7 (Arends et al., 2019); cited from earlier work
# [4] = tested on: E. coli MG1655 GyrA M120A, ParC M118A; experiment: microbe, parasite or virus in culture; format: cell-based; details: Escherichia coli
# K. pneumoniae ATCC 13883 = experiment: MIC broth microdilution; format: cell-based; details: Klebsiella pneumoniae, ATCC13883
# P. aeruginosa BAA 2794 = experiment: microbe, parasite or virus in culture; format: cell-based; details: Pseudomonas aeruginosa, BAA2794
# P. aeruginosa gyrase = P. aeruginosa gyrase (Pseudomonas aeruginosa, UniProt P48372+Q9I7C2); experiment: biochemical
# E. coli BAA 2471 = experiment: microbe, parasite or virus in culture; format: cell-based; details: Escherichia coli, BAA2471
# E. coli ATCC 25922 [5] = experiment: Resistant mutant generation by serial passage method; format: cell-based; details: Escherichia coli, read-out: MIC, serial passage
# E. faecalis ATCC 29212 = experiment: MIC broth microdilution; format: cell-based; details: Enterococcus faecalis, ATCC29212
# [6] = tested on: E. coli MG1655 GyrA D82N, ParC D79N; experiment: microbe, parasite or virus in culture; format: cell-based; details: Escherichia coli
# [7] = tested on: E. coli MG1655 GyrA WT, ParC D79N; experiment: microbe, parasite or virus in culture; format: cell-based; details: Escherichia coli
# E. coli = details: ref 8 (Flamm et al., 2017); cited from earlier work
# Human topo IIα = Human topo IIα (Homo sapiens, UniProt P11388); experiment: Human topo IIα decatenation assay; format: biochemical; details: read-out: IC50 Human topo IIα decatenation
# Description: as §1
# [8] = tested on: E. coli MG1655 (GyrA WT, ParC WT); experiment: microbe, parasite or virus in culture; format: cell-based; details: Escherichia coli
# [9] = target: P. aeruginosa topoisomerase IV (Pseudomonas aeruginosa, UniProt Q9HUJ8+Q9HUK1); experiment: Topoisomerase IV decatenation assay, P. aeruginosa; format: biochemical
# Description: Topoisomerase IV decatenation reactions were performed using 2.5 nM E. coli enzyme and 60 ng kinetoplast DNA (kDNA) in an assay buffer containing 50 mM HEPES-KOH (pH 7.6), 100 mM potassium glutamate, 10 mM magnesium acetate, 10 mM DTT, 1 mM ATP, and 50 μg/mL albumin. Assays with P. aeruginosa topoisomerase IV (3 nM) were conducted in a similar buffer but with 50 mM HEPES-KOH (pH 7.9), 100 mM potassium glutamate, 6 mM magnesium acetate, 6 mM DTT, 1 mM ATP, 2 mM spermidine, and 50 μg/mL albumin. For S. aureus topoisomerase IV assay, the reactions contained 4 nM enzyme in an assay buffer composed of 50 mM Tris-HCl (pH 7.5), 5 mM MgCl₂, 5 mM DTT, 1.5 mM ATP, 350 mM potassium glutamate, and 0.05 mg/mL albumin. The procedures followed were consistent with those used in the supercoiling assays. Decatenated minicircles were resolved on 0.8% agarose gels, while the kDNA substrate remained in the wells. Gels were stained with 0.8 μg/mL ethidium bromide solution for 10 min, followed by destaining. DNA bands were visualized using a gel documentation system, and compound inhibition analysis was carried out using the same procedures described for the supercoiling assays.
# [10] = tested on: E. coli MG1655 GyrA D82N, ParC WT; experiment: microbe, parasite or virus in culture; format: cell-based; details: Escherichia coli
# A. baumannii BAA 2885 = experiment: microbe, parasite or virus in culture; format: cell-based; details: Acinetobacter baumannii, BAA2885
# A. baumannii ATCC 19606 = experiment: MIC broth microdilution; format: cell-based; details: Acinetobacter baumannii, ATCC19606
# Human topo IIß, sequence (Q02880 whole entry): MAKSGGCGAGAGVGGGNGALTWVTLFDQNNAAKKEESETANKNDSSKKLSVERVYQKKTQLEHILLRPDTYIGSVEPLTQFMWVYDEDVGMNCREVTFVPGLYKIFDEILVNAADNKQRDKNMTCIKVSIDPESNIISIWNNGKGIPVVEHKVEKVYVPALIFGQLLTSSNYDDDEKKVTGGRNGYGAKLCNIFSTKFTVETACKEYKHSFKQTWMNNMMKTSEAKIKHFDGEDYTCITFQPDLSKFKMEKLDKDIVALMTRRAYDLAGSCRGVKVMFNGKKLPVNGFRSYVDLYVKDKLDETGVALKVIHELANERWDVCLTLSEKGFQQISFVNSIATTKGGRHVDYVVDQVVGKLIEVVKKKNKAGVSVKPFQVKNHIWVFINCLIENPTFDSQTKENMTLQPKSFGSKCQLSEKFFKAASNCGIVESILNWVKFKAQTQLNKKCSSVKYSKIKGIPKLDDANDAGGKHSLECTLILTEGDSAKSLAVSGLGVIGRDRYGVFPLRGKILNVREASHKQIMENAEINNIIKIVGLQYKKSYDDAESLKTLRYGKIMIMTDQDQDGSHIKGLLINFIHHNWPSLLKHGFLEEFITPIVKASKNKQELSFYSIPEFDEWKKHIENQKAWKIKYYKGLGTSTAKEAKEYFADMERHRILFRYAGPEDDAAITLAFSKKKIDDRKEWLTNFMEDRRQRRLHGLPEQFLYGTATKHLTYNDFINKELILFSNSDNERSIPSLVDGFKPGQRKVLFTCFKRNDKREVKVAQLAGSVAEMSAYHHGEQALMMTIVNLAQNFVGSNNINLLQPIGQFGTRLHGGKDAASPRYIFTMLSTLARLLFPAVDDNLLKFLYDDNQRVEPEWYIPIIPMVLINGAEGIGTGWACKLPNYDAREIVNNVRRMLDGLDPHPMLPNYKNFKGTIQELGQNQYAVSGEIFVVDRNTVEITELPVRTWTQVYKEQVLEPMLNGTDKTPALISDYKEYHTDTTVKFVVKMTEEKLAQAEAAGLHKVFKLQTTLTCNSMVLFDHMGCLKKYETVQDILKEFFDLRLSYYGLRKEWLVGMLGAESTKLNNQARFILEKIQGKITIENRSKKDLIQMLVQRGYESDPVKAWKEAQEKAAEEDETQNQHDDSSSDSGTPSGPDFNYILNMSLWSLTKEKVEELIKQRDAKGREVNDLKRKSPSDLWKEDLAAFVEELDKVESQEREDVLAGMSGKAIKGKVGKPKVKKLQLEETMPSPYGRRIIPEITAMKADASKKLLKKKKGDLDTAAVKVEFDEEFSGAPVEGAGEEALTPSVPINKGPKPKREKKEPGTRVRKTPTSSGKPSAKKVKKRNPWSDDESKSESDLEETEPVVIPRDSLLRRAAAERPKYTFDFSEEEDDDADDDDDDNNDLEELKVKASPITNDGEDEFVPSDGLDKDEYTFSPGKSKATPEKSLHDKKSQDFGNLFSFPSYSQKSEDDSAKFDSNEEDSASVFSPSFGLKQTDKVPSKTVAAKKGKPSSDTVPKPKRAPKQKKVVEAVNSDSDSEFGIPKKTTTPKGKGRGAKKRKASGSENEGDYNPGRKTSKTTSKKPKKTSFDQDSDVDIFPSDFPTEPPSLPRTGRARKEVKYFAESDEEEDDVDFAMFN
# P. aeruginosa topoisomerase IV, sequence (Q9HUK1 whole entry): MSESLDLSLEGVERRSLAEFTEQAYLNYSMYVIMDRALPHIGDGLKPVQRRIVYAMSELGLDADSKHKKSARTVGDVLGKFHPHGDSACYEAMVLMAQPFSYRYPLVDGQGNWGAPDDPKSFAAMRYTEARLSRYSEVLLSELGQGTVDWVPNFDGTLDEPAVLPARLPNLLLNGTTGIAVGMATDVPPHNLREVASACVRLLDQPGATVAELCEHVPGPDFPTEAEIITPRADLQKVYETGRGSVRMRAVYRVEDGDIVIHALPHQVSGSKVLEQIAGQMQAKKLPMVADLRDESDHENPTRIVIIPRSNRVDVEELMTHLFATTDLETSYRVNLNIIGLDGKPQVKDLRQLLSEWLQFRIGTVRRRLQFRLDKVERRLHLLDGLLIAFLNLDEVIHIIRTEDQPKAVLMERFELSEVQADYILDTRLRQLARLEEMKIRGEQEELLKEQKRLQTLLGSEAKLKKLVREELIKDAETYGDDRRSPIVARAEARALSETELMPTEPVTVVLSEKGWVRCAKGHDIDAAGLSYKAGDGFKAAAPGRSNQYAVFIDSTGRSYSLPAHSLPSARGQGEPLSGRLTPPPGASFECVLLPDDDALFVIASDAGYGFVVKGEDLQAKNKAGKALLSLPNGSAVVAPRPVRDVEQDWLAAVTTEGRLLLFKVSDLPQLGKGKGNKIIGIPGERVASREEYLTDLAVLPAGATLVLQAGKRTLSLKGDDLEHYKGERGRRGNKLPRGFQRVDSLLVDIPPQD
# P. aeruginosa topoisomerase IV, sequence (Q9HUJ8 whole entry): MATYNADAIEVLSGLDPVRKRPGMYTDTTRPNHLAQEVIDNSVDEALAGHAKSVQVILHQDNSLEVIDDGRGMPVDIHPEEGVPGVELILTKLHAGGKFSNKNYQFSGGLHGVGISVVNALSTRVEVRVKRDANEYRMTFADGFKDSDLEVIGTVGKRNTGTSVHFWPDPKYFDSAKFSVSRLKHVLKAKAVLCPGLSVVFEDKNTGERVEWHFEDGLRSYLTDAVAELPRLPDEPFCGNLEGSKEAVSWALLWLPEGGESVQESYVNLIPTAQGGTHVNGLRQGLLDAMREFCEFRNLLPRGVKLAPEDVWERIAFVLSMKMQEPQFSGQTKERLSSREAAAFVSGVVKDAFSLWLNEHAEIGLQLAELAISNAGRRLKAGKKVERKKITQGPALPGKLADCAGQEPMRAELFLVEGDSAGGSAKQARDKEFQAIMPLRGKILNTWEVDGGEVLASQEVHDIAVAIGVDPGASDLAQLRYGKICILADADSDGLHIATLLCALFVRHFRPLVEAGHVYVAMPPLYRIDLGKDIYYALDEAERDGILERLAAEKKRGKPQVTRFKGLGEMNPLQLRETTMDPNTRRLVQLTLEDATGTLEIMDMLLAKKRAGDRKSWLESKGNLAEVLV
# Human topo IIα, sequence (P11388 whole entry): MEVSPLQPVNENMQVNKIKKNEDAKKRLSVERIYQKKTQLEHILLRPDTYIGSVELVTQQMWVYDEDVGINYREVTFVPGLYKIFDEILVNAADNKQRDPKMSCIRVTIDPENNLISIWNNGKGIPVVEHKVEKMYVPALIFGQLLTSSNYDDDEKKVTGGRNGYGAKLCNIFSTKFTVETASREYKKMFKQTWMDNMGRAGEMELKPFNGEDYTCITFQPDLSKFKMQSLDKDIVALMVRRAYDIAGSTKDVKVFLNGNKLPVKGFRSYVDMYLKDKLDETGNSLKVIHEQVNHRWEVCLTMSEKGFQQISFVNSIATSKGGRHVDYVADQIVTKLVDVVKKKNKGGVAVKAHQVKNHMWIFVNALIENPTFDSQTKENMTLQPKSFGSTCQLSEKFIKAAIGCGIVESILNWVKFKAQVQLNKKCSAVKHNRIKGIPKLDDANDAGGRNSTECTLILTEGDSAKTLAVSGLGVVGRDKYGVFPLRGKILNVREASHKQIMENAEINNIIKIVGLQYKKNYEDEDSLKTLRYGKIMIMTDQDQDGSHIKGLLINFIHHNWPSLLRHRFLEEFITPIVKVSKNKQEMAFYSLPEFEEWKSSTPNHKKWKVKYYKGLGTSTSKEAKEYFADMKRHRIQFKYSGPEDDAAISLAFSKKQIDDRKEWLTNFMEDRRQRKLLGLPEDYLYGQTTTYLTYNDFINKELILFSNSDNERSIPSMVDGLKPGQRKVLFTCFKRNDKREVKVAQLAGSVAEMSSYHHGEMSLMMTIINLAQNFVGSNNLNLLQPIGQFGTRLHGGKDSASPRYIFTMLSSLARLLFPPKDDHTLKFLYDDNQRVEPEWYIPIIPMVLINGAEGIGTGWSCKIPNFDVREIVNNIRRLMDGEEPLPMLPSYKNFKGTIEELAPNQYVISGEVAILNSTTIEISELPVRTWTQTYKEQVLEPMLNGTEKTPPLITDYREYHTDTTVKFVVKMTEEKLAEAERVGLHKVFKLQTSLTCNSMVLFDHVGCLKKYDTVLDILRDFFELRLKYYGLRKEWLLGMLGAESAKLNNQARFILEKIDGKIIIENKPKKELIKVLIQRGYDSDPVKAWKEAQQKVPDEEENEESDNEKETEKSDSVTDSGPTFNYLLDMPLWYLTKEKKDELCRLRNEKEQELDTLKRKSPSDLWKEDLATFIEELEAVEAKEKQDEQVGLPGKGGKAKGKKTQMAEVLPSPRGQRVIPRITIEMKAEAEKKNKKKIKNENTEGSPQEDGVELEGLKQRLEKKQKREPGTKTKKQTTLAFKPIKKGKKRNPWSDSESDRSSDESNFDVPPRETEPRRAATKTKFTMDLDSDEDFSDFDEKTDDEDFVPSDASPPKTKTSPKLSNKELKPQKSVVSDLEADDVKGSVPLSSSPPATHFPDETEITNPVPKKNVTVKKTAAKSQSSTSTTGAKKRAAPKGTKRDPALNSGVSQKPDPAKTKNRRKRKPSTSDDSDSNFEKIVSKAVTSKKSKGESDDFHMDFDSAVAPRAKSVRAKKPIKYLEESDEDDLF
smiles,measurement,setting,value
"O=c1ccc2ncc(=O)n3c2n1C[C@H]3CN1CCC(NCc2cc3c(cn2)OCCC3)CC1 [Gepotidacin, reference compound]",MIC90 against diverse global isolates,E. faecalis,2 µg/mL
same,MIC,E. coli ATCC 25922 [1],0.5 µg/mL
same,MIC,K. pneumoniae KPNIH1,8 µg/mL
same,MIC,[2],0.13 µg/mL
same,MIC,P. aeruginosa ATCC 27853,1 µg/mL
same,MIC,K. pneumoniae BAA 2784,1 µg/mL
same,MIC,S. aureus ATCC 29213,0.125 µg/mL
same,IC50,Human topo IIß,> 200000 nM
same,MIC90 against diverse global isolates,S. aureus,0.5 µg/mL
same,MIC90 against diverse global isolates,E. cloacae,16 µg/mL
same,MIC,[3],0.42 µg/mL
same,MIC,K. pneumoniae BAA 2782,1 µg/mL
same,MIC,E. coli BAA 2469,0.5 µg/mL
same,MIC,P. aeruginosa BAA 2797,1 µg/mL
same,MIC90 against diverse global isolates,K. pneumoniae,16 µg/mL
same,MIC,[4],0.63 µg/mL
same,MIC,K. pneumoniae ATCC 13883,1 µg/mL
same,MIC,P. aeruginosa BAA 2794,0.5 µg/mL
same,IC50,P. aeruginosa gyrase,350 nM
same,MIC,E. coli BAA 2471,2 µg/mL
same,MIC,"E. coli ATCC 25922 [5]; ATCC25922, 24 h",0.25 µg/mL
same,MIC,"E. coli ATCC 25922 [5]; ATCC25922, 288 h",1.25 µg/mL
same,MIC,E. faecalis ATCC 29212,1 µg/mL
same,MIC,[6],> 40 µg/mL
same,MIC,[7],0.83 µg/mL
same,MIC90 against diverse global isolates,E. coli,4 µg/mL
same,IC50,Human topo IIα,> 200000 nM
same,MIC,[8],0.47 µg/mL
same,IC50,[9],1560 nM
same,MIC,[10],0.42 µg/mL
same,MIC,A. baumannii BAA 2885,2 µg/mL
same,MIC,A. baumannii ATCC 19606,2 µg/mL
